The values below come from patent publication EP0985409A1, “Cosmetic use of fatty acids” (Shiseido International France SA, priority 1998, dated 2000).

For one assay, the target named is T1, MMP-1 (Homo sapiens, UniProt P03956).
T1 sequence (P03956 100-469): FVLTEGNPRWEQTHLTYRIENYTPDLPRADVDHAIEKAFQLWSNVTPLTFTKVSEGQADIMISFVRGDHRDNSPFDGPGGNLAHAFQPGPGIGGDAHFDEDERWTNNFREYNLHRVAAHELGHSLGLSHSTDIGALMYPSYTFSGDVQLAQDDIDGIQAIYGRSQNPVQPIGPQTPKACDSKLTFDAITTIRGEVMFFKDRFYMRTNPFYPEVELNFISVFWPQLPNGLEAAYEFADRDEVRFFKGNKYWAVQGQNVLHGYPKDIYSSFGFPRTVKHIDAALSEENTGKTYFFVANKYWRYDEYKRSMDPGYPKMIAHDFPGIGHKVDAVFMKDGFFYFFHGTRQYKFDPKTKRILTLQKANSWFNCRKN
The assay is described as follows: Inhibition of MMP enzymatic activity, hydrolysis of fluorescent synthetic substrate. Conditions: MMP-1, Collagénase intersticielle. In kind it is biochemical.

In assay [1] the target is T2, MMP-2 (Homo sapiens, UniProt P08253).
T2 sequence (P08253 110-660): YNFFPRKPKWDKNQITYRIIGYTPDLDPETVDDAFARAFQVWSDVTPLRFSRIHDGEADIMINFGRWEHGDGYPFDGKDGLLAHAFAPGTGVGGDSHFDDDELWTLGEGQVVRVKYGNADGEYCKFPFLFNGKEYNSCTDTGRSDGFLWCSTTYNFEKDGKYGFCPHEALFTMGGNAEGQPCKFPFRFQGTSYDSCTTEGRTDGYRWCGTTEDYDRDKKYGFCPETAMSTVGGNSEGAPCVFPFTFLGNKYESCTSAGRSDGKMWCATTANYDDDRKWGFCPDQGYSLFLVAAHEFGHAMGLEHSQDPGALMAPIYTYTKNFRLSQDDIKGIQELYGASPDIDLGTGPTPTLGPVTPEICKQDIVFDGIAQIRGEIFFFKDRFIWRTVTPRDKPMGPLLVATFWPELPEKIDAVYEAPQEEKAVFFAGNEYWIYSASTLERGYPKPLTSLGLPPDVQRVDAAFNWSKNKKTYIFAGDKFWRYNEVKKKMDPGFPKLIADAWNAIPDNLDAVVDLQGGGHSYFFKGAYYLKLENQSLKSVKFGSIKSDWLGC
The description is as above. The following applies: MMP-2, Gélatinase A. In kind it is biochemical. The text has this:
(§1) On a démontré l'effet d'inhibition d'acides gras selon l'invention vis à vis de différentes métalloprotéinases matricielles. A cet effet, on a déterminé l'activité enzymatique de ces MMPs en utilisant un substrat synthétique fluorescent, le (7- méthoxycoumarine-4-yl) acétyl-Pro-Leu-Gly-Leu-(3-[2,4-dinitrophényl]-L-2,3-diaminopropionyl)-Ala-ArgNH2. Les MMPs peuvent cliver de façon spécifique la liaison amide qui lie les acides aminés Gly et Leu de ce substrat.
(§2) L'hydrolyse s'accompagne d'une augmentation sensible de la fluorescence qui peut être suivie et quantifiée à l'aide d'un spectrofluorimètre aux longueurs d'onde choisies. Suite à la rupture de la liaison Gly-Leu, le groupement dinitrophényl ne peut plus masquer la fluorescence du groupement 7-méthoxycoumarine.
(§3) On a réalisé cette hydrolyse du substrat par la MMP-2 et la MMP-9 en absence ou en présence de différentes concentrations d'acides gras selon l'invention. Les constantes d'inhibition (Ki) de l'activité enzymatique ont pu être ainsi déterminées. Les résultats obtenus figurent dans le Tableau I ci-dessous. Tableau I

Assay [2] deals with T3, MMP-9 (Homo sapiens, UniProt P14780). Described as above. In kind it is biochemical. The following applies: MMP-9, Gélatinase B.
Description: as §1, §2, §3
Target sequence in this assay (P14780 94-707): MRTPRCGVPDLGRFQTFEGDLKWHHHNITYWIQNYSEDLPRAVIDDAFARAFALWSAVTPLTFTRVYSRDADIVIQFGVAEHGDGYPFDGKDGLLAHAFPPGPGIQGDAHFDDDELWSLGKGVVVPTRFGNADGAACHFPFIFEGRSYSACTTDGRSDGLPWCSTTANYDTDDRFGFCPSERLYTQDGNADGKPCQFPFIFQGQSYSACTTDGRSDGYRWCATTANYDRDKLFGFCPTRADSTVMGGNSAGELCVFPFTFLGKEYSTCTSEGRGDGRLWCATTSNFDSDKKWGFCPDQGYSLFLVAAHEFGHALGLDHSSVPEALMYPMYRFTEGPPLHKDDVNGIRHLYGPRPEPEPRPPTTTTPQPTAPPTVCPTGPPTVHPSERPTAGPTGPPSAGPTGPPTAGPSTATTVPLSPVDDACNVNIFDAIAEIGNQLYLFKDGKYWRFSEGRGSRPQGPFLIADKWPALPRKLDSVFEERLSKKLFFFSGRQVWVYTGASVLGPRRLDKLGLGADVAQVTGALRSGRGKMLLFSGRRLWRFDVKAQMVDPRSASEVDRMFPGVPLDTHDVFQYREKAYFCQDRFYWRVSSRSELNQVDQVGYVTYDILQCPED

Another assay deals with MMP-3 (Homo sapiens, UniProt P08254). Described as above. In kind it is biochemical. The following applies: MMP-3, Stromélysine-1.
For assay [3], the target named is T2, MMP-2. Put plainly: Ex vivo protection of extracellular matrix fibres: skin sections pre-incubated with fatty acid, then enzyme. In kind it is biochemical, humaine. Also on record: L'enzyme sous sa forme activée a été incubée pendant 15 min. Conditions: then MMP-2; for % de protection: 10 µM. The text has this: (§4) Les études ex vivo ont été réalisées sur des coupes de peau humaine issues de prépuces d'enfants âgés de 10 à 24 mois. Les coupes mises en oeuvre étaient des coupes de congélation de 8 µm d'épaisseur, sériées.
(§5) L'effet protecteur de la matrice extra-cellulaire a été déterminé de la façon suivante : les lames portant les coupes de peau ont été incubées sous agitation douce pendant 4 heures dans l'éthanol pur contenant l'acide gras selon l'invention à la concentration désirée. Puis les coupes ont été rincées et séchées. L'enzyme a alors été déposée sur la coupe, la lame a été mise à incuber en atmosphère humide à 37°C pendant 4 à 18 heures. A la fin de l'incubation, les lames ont été colorées avec les colorants spécifiques de l'élastine ou des collagènes mentionnés plus haut.
(§6) Les résultats obtenus ont été déterminés selon le principe de quantification suivant: les fibres élastiques ont été colorées de façon spécifique par la + catéchine, et ont été quantifiées grâce à un système morphométrique précis et automatisé. Les lames ont été observées sous microscope équipé d'une caméra. Les images générées ont été converties en niveaux de gris correspondant aux composants à étudier. Les plus petites particules ne correspondant pas à ces éléments ont été éliminées de l'analyse. Un programme spécifique a permis de calculer ensuite la surface relative occupée par les fibres. Avec les fibres élastiques on a pu calculer l'aire et également le volume occupé par celles-ci, puisque leur longueur est supérieure à leur largeur. L'aire occupée par les trousseaux collagéniques a pu être quantifiée selon la même procédure.
Les trousseaux étaient plus denses, plus épais, leurs extrémités étaient moins effilochées, le réseau apparaissait plus dense. […] La quantification des fibres a permis d'obtenir les résultats figurant dans le Tableau IV suivant : Tableau IV

Assay [4] addresses T3, MMP-9. The description is as above. In kind it is biochemical, humaine. Set-up: L'enzyme sous sa forme activée a été incubée pendant 15 min. The following applies: then MMP-9; for % de protection: 10 µM.
Description: as §4, §5, §6
Target sequence in this assay (P14780 107-707 limits assumed): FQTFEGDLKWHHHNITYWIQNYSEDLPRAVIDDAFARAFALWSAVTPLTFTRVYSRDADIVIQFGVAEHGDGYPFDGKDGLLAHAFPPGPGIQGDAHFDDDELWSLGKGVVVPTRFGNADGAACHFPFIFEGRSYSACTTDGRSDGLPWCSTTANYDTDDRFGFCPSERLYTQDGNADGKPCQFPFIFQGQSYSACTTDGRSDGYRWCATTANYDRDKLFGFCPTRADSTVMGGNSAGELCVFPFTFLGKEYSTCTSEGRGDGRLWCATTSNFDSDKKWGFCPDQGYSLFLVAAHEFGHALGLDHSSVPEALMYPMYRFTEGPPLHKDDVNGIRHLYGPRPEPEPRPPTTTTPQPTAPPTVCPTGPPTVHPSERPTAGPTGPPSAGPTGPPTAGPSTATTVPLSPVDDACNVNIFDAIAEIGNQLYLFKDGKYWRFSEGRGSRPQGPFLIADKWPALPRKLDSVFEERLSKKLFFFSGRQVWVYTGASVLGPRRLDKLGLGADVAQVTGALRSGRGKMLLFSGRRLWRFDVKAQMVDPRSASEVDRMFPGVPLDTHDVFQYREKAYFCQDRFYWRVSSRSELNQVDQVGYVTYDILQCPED
Les résultats obtenus figurent dans le Tableau V ci-après : Tableau V

The next assay addresses T4, élastase leucocytaire (Homo sapiens, UniProt P08246).
T4 construct: L'enzyme sous sa forme activée a été incubée pendant 15 min
T4 sequence (P08246 30-267): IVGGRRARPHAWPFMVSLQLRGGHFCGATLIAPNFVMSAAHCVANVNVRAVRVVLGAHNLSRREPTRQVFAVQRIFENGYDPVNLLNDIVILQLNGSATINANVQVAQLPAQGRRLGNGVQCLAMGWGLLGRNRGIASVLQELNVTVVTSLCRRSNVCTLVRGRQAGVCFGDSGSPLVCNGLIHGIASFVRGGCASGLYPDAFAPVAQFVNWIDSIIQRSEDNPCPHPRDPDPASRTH
Put plainly: Ex vivo protection of elastic fibres: skin sections pre-incubated with fatty acid, then enzyme. The format is biochemical, humaine. The following applies: section pre-incubated with fatty acid; degradation of elastic fibres by élastase leucocytaire; concentration not given.
Description: as §4, §5
as §6, with “Un programme spécifique a permis de calculer ensuite la surface relative occupée par les fibres. Avec les fibres élastiques on a pu calculer l'aire et également le volume occupé par celles-ci, puisque leur longueur est supérieure à leur largeur.” left out, “procédure. […]” for “procédure.”

Assay [5] has as its target T2, MMP-2. The assay is described as follows: Ex vivo inhibition of enzyme activity on human skin sections: collagen bundle hydrolysis, enzyme pre-incubated with fatty acid. The format is biochemical, humaine. Set-up: L'enzyme sous sa forme activée a été incubée pendant 15 min. Conditions: for inhibition at 1 µM / inhibition at 10 µM: hydrolysis of collagen bundles by MMP-2, human skin sections, read-out: % d'inhibition; for hydrolyse des trousseaux collagéniques (observation): MMP-2 pre-incubated with fatty acid. As for the experimental part: as §4
(§7) L'effet inhibiteur de l'activité enzymatique a été déterminé de la manière suivante : les enzymes testées étaient les suivantes : MMP-2, MMP-9 ou élastase leucocytaire. L'enzyme sous sa forme activée a été incubée pendant 15 min avec différentes concentrations d'acides gras selon l'invention, puis la solution contenant l'enzyme et l'inhibiteur a été déposée sur la coupe de peau humaine et incubée 4 à 18 heures à 37°C dans une atmosphère humide.
(§8) A la fin de l'incubation, les coupes ont été colorées avec des colorants spécifiques. Le colorant de l'élastine est la + catéchine et celui des collagènes est le rouge sirius.
as §6
On a étudié l'activité protéolytique de la MMP-2 sur les collagènes. Lorsque la MMP-2 est ajoutée sur les coupes de peau, on a pu observer une hydrolyse des trousseaux collagéniques, ceux-ci étant moins denses et moins nombreux. De plus l'épiderme était décollé. L'hydrolyse était de 34 % environ.

The target of assay [6] is T3, MMP-9. Put plainly: Ex vivo inhibition of enzyme activity on human skin sections: elastic fibre hydrolysis, enzyme pre-incubated with fatty acid. In kind it is biochemical, humaine. Set-up: L'enzyme sous sa forme activée a été incubée pendant 15 min. The following applies: for inhibition at 1 µM / inhibition at 10 µM: hydrolysis of elastic fibres by MMP-9, human skin sections, read-out: % d'inhibition; for inhibition de l'activité de la MMP-9 (observation): MMP-9 pre-incubated with fatty acid, elastic fibres. As for the experimental part:
as §4, §7, §8, §6
Target sequence in this assay (P14780 107-707 limits assumed): as the sequence (P14780 107-707 limits assumed) above
Dans le cas de la MMP-9, on a étudié l'hydrolyse des fibres élastiques. En effet, à l'inverse de la MMP-2, la MMP-9 possède essentiellement une activité élastinolytique in situ.
Au niveau des fibres élastiques matures du derme moyen, on a observé une hydrolyse par la MMP-9. Les fibres élastiques étaient courtes et en paquets au lieu d'être longues et bien individualisées. L'hydrolyse était de 35 % environ. […] La quantification de l'hydrolyse des fibres élastiques par la MMP-9 en fonction des différents traitements a permis de déterminer le pourcentage d'inhibition de l'activité enzymatique. Les résultats obtenus figurent dans le Tableau III suivant : Tableau III

Chain of MMP-3 (P08254 100-477): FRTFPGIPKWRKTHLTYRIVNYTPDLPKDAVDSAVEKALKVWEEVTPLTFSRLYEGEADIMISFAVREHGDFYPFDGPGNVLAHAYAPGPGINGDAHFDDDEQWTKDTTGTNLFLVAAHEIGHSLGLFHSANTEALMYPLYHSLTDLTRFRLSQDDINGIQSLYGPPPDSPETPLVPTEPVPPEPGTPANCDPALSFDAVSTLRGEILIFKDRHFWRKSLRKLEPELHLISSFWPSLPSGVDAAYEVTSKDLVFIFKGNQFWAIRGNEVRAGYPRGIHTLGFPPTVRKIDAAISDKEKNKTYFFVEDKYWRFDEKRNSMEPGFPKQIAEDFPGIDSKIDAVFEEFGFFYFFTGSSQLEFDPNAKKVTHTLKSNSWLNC

`CCCCCCCC/C=C/CCCCCCCC(=O)O` [acide élaïdique]: the Ki on MMP-1 is 2.7 µM; at MMP-2 [1], 4.25 µM; at MMP-9 [2], 5.8 µM; at MMP-3 it was 1.8 µM. The “% de protection” value on MMP-2 [3] worked out at 32%; on MMP-9 [4], 98%. Moreover, at MMP-2 [3], the “hydrolyse des trousseaux collagéniques (observation)” value is given as “La même constatation a pu être faite”. Besides, the “hydrolyse des fibres élastiques (observation)” value at MMP-9 [4] is on record as “l'hydrolyse des fibres élastiques matures du derme moyen par la MMP-9 était nettement diminuée”.

For `CC/C=C/C=C/C=C/C=C\CCCCCCCC(=O)O` [acide cis-parinarique], the Ki on MMP-2 [1] came out at 8 µM; on MMP-9 [2] it was 14 µM. Further, the protection at élastase leucocytaire worked out at 58%. For the same molecule, the inhibition at 1 µM on MMP-2 [5] turned out to be 18%; at MMP-9 [6] it was 10%. Moreover, the “hydrolyse des trousseaux collagéniques (observation)” value on MMP-2 [5] (10 µM) was “inhibait moins l'activité enzymatique”. Also, the results for the inhibition at 10 µM at MMP-2 [5] (10 µM) and on MMP-9 [6] were 40% and 24%, respectively. Besides, on MMP-9 [6], the “inhibition de l'activité de la MMP-9 (observation)” value was “Cette inhibition est retrouvée”.

With `CC/C=C/C=C/C=C/C=C/CCCCCCCC(=O)O` [acide trans-parinarique], the Ki is 24 µM on MMP-2 [1] and 1.9 µM at MMP-9 [2]. Besides, the “hydrolyse des trousseaux collagéniques (observation)” value is reported as “l'hydrolyse a été diminuée” on MMP-2 [5] (1 µM), “l'hydrolyse était nettement diminuée” at MMP-2 [5] (10 µM) and “hydrolyse des trousseaux collagéniques nettement moins marquées” on MMP-2 [3]. In addition, the results for the inhibition at 1 µM at MMP-2 [5] and on MMP-9 [6] were 12% and 16%, respectively. In addition, the results for the inhibition at 10 µM on MMP-2 [5] (10 µM) and on MMP-9 [6] were 56% and 48%, respectively. Also, on MMP-9 [6], the “inhibition de l'activité de la MMP-9 (observation)” value is on record as “inhibe l'activité de celle-ci”. For the same molecule, the “% de protection” value on MMP-2 [3] stood at 61%; at MMP-9 [4], 75%. Moreover, at MMP-9 [4], the “hydrolyse des fibres élastiques (observation)” value is reported as “l'hydrolyse des fibres préélastiques du derme superficiel était diminuée”.
